Entries after “also recorded” stand apart in the source; their conditions may differ.
Legend:
[1] = system: IL-1β mRNA; test: IL-1β mRNA expression in muscularis externae of intestinal grafts; format: in vivo, rat
Procedure: To investigate the sequential analysis of cytokine mRNA expression in the mucosa and muscularis, RNase protection assay was performed with the Riboquant™ kit (Pharmingen) according to the protocol of the manufacturer. […] Quantification of radioactivity of mRNA bands was performed with NIH Image, normalized to GAPDH, and expressed as a ratio of cytokine /GAPDH (n=3-4).
The effects of inhalation of CO on transplant-induced pro-inflammatory and anti-inflammatory gene expression was assessed in muscularis extracts by RT-PCR. […] Equal aliquots (5 μg) of total RNA from each sample were quantified by spectrophotometry (wavelength […]) and aliquoted at a concentration of 40 ng/μl. Peak mRNA expression was quantified in duplicate by SYBR Green two-step, real-time RT-PCR. […] Real-time PCR data were plotted as the ΔRn, fluorescence signal versus the cycle number. […] Quantification of mRNA expression was normalized to GAPDH and calculated relative to control using the comparative CT method (Schmittgen et al., J. Biochem. Biophys. Methods 46(1-2):69-8 (2000)). […]

[2] = system: IL-10 mRNA; test: IL-10 mRNA in muscularis after IM (real time RT-PCR); format: in vivo, mouse
Procedure: Pro- and anti-inflammatory gene expression was determined by real time RT-PCR. The small intestinal muscularis externa was collected at 4 time points (3, 6, 12, and 24 hr) postoperatively and snap frozen in liquid nitrogen. Total RNA extraction was performed using the guanidium-thiocyanate phenol-chloroform extraction method as described in Eskandari et al. (Id.) RNA pellets were resuspended in RNA-secure resuspension solution (Ambion Inc., Austin, Tex.), followed by removal of potential contaminating DNA by treatment with DNase I (DNA-Free Kit, Ambion Inc., Austin, Tex.). Equal aliquots (5 μg) of total RNA from each sample were quantified by spectrophotometry (wavelength […]). Peak mRNA expression was quantified in duplicate by SYBR Green two-step, real-time RT-PCR. β-actin was used as the endogenous reference. Aliquoted RNA (40 ng) was subjected to first-strand complementary DNA (cDNA) synthesis using random hexamers (PE applied Biosystems, Foster City, Calif.) and Super Script II (Life Technologies, Rockville, Md.). Primers were taken from the literature or designed according to published sequences (Table 3). PCR reaction mixture was prepared using SYBR Green PCR Core Reagents (PE Applied Biosystems). Each sample was estimated in duplicate using the conditions recommended by the manufacturer. Real-time PCR data were plotted as the ΔRn fluorescence signal versus the cycle number. An arbitrary threshold was set to the midlinear portion of the log ΔRn cycle plot. The threshold cycle (CT) is defined as the cycle number at which the ΔRn, crosses this threshold. Quantification of mRNA expression was normalized to β-actin and calculated relative to control using the comparative CT method.
To exclude PCR amplification of contaminating genomic DNA, RT-negative controls (samples containing RNA which was not reverse transcribed) were included in each PCR reaction. Melting curve analyses were performed for each reaction to ensure amplification of specific product. In addition, gel electrophoresis were performed for the primers to confirm the absence of non-specific bands and that the amplicons were of the correct size. PCR amplification efficiency of each target cDNA was measured by determining the colinearity of serial dilutions. Serial 3-fold dilutions of cDNA were performed in triplicate for all primers. Standard curves were generated by plotting CT values against relative input copy number to validate the primers. Slopes of the standard curves of −3.2±0.3 with correlation coefficients of 0.99 were considered to be acceptable, having corresponding efficiencies of 100±10%. Analyses of Mediator Release from Intestinal Muscularis

[C-]#[O+] [CO, carbon monoxide]
IL-1β mRNA ([1]; SITx + CO, Table 2): 6.6 + 0.1 % GAPDH
reduction of mean relative IL-1β mRNA expression ([1]; SITx recipients treated with CO vs SITx, 4 hours after reperfusion, p=0.046): 50%
IL-10 gene expression relative to controls ([2]; CO treated manipulated animals, 3 hr time point): 43 fold
IL-10 gene expression, increase over manipulation alone ([2]; IM + CO vs IM, 3 hr): 300%
IL-10 message ([2]; IM + CO vs IM, 3 hr but not 6 hr after surgery): increased
IL-10 expression ([2]; control mice, CO inhalation alone, 3 and 6 hr): significant increase; also recorded: significantly increased

Reference: US7687079B2, “Methods of treating ileus” (priority 2002, dated 2010)
